Assays:
Test in all cases: radiometric filter-binding kinase assay
[1] = target: AURKB (human) (UniProt Q96GD4); conditions: compound 100.0 µM; ATP 20 µM
[2] = target: BRSK1 (human) (UniProt Q8TDC3); conditions: compound 100.0 µM; ATP 20 µM
[3] = target: BRSK2 (human) (UniProt Q8IWQ3); conditions: compound 100.0 µM; ATP 50 µM
[4] = target: BTK (human) (UniProt Q06187); conditions: compound 100.0 µM; ATP 50 µM
[5] = target: CAMKK2 (human) (UniProt Q96RR4); conditions: compound 100.0 µM; ATP 20 µM
Chain of CAMKK2 (human) (Q96RR4 whole entry, looked up): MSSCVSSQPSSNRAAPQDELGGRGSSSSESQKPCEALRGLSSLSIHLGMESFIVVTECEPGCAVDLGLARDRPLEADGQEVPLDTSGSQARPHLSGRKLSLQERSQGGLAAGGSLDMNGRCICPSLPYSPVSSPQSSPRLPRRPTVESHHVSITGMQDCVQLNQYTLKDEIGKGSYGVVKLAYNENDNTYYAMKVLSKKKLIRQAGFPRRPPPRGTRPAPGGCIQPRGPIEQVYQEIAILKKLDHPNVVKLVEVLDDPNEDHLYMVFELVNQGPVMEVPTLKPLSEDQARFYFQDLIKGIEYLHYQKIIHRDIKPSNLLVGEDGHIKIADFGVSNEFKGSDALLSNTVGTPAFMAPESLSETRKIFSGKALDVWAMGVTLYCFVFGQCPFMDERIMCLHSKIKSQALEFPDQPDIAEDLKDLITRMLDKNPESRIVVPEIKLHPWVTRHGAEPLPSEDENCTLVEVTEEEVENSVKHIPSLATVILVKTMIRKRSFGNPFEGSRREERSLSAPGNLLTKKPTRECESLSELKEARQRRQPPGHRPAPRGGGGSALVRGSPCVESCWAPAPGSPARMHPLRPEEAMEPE

[6] = target: CLK2 (human) (UniProt P49760); conditions: compound 100.0 µM; ATP 5 µM
[7] = target: CSK (human) (UniProt P41240); conditions: compound 100.0 µM; ATP 20 µM
[8] = target: CSNK2A1 (human) (UniProt P68400); conditions: compound 100.0 µM; ATP 5 µM
[9] = target: DAPK1 (human) (UniProt P53355); conditions: compound 100.0 µM; ATP 5 µM
[10] = target: DYRK2 (human) (UniProt Q92630); conditions: compound 100.0 µM; ATP 50 µM
[11] = target: DYRK3 (human) (UniProt O43781); conditions: compound 100.0 µM; ATP 5 µM
Chain of DYRK3 (human) (O43781 whole entry, looked up): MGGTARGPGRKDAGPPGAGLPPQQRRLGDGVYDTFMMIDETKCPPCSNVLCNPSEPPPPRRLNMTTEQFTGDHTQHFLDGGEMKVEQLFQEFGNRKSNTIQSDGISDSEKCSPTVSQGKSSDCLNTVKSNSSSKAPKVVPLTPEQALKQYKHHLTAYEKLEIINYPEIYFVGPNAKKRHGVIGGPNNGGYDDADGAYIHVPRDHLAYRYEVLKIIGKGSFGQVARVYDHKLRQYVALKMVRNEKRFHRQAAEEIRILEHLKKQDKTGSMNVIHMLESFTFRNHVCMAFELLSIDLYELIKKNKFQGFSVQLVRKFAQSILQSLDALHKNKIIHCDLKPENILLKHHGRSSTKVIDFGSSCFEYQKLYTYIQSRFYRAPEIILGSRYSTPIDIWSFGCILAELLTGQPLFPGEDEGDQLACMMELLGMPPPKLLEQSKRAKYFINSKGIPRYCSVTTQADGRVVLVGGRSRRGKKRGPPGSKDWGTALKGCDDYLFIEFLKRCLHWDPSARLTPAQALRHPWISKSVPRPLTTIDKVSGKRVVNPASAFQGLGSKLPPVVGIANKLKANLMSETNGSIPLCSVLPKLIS

[12] = target: EPHA2 (human) (UniProt P29317); conditions: compound 100.0 µM; ATP 50 µM
[13] = target: EPHA4 (human) (UniProt P54764); conditions: compound 100.0 µM; ATP 50 µM
[14] = target: EPHB1 (human) (UniProt P54762); conditions: compound 100.0 µM; ATP 20 µM
[15] = target: EPHB3 (human) (UniProt P54753); conditions: compound 100.0 µM; ATP 20 µM
[16] = target: FGFR1 (human) (UniProt P11362); conditions: compound 100.0 µM; ATP 20 µM
[17] = target: HIPK2 (human) (UniProt Q9H2X6); conditions: compound 100.0 µM; ATP 5 µM
[18] = target: INSR (human) (UniProt P06213); conditions: compound 100.0 µM; ATP 20 µM
[19] = target: IRAK4 (human) (UniProt Q9NWZ3); conditions: compound 100.0 µM; ATP 20 µM
[20] = target: MAP2K1 (human) (UniProt Q02750); conditions: compound 100.0 µM; ATP 5 µM
[21] = target: MAPK1 (human) (UniProt P28482); conditions: compound 100.0 µM; ATP 20 µM
[22] = target: MAPK13 (human) (UniProt O15264); conditions: compound 100.0 µM; ATP 5 µM
[23] = target: MAPK14 (human) (UniProt Q16539); conditions: compound 100.0 µM; ATP 50 µM
[24] = target: MAPK9 (human) (UniProt P45984); conditions: compound 100.0 µM; ATP 20 µM
[25] = target: MARK3 (human) (UniProt P27448); conditions: compound 100.0 µM; ATP 5 µM
[26] = target: MINK1 (human) (UniProt Q8N4C8); conditions: compound 100.0 µM; ATP 50 µM
Chain of MINK1 (human) (Q8N4C8 whole entry, looked up): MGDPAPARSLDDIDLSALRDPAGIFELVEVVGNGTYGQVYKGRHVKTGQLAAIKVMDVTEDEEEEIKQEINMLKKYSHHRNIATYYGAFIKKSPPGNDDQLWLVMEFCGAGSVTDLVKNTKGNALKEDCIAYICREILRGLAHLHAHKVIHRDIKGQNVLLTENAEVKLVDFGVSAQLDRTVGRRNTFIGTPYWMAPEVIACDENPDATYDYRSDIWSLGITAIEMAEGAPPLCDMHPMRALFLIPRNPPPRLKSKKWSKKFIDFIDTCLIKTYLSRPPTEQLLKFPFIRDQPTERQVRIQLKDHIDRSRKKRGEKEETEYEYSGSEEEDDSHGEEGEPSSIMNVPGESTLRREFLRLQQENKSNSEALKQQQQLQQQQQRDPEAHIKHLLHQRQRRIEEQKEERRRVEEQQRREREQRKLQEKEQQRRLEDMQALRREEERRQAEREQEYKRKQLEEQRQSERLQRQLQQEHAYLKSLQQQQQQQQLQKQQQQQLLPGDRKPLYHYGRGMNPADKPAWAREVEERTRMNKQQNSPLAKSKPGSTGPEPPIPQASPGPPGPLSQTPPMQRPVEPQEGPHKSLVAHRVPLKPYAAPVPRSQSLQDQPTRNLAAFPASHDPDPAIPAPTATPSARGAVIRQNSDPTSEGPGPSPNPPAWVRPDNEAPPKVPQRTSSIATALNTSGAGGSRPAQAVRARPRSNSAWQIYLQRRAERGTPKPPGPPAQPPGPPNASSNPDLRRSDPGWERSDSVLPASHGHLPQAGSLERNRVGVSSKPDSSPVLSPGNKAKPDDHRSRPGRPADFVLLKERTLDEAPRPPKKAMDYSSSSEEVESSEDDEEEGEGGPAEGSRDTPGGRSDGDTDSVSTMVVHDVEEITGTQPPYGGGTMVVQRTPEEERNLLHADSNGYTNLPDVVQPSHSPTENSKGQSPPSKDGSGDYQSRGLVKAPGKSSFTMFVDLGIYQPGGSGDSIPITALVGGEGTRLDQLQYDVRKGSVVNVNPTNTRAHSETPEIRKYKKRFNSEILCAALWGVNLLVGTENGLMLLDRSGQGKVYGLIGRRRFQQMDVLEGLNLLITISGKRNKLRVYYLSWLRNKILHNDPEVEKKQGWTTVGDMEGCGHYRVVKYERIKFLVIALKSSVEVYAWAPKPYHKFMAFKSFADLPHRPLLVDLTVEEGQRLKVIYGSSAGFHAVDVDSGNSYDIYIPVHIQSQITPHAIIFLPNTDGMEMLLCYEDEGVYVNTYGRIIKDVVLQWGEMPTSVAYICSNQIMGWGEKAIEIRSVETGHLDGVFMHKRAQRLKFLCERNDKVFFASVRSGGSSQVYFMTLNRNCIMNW

[27] = target: MKNK1 (human) (UniProt Q9BUB5); conditions: compound 100.0 µM; ATP 50 µM
Chain of MKNK1 (human) (Q9BUB5 whole entry, looked up): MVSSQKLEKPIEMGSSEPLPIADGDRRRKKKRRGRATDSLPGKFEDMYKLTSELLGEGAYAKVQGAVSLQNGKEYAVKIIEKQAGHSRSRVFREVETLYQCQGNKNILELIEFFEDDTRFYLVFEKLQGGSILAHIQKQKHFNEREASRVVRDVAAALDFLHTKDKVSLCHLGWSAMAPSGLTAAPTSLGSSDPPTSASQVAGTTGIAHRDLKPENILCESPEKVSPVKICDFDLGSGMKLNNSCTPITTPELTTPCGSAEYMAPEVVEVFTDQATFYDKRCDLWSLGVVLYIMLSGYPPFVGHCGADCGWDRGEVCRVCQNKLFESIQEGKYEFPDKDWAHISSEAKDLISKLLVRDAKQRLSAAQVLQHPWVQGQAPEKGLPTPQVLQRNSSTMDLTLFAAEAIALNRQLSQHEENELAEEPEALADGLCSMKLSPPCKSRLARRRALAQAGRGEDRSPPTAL

[28] = target: MST4 (human) (UniProt Q9P289); conditions: compound 100.0 µM; ATP 20 µM
Chain of MST4 (human) (Q9P289 whole entry, looked up): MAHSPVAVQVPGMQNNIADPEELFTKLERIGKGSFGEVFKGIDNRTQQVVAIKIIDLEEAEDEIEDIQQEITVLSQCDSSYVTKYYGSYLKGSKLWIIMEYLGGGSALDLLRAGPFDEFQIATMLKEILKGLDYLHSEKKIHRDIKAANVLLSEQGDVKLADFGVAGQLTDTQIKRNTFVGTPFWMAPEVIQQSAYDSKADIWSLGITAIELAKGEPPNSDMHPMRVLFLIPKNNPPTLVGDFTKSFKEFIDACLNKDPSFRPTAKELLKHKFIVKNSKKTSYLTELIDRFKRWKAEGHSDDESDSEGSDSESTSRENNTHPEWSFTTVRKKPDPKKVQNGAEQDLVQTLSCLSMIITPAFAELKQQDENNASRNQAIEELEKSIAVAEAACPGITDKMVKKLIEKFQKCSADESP

[29] = target: PAK6 (human) (UniProt Q9NQU5); conditions: compound 100.0 µM; ATP 20 µM
[30] = target: PAK7 (human) (UniProt Q9P286); conditions: compound 100.0 µM; ATP 20 µM
[31] = target: PIM1 (human) (UniProt P11309); conditions: compound 100.0 µM; ATP 20 µM
[32] = target: PRKCA (human) (UniProt P17252); conditions: compound 100.0 µM; ATP 20 µM
[33] = target: RPS6KA3 KD1 KD2 (human) (UniProt P51812); conditions: compound 100.0 µM; ATP 50 µM
[34] = system: SGK1 (human), O00141 [S422D]; conditions: compound 100.0 µM; ATP 20 µM
[35] = target: SRC (human) (UniProt P12931); conditions: compound 100.0 µM; ATP 50 µM
Chain of SRC (human) (P12931 whole entry, looked up): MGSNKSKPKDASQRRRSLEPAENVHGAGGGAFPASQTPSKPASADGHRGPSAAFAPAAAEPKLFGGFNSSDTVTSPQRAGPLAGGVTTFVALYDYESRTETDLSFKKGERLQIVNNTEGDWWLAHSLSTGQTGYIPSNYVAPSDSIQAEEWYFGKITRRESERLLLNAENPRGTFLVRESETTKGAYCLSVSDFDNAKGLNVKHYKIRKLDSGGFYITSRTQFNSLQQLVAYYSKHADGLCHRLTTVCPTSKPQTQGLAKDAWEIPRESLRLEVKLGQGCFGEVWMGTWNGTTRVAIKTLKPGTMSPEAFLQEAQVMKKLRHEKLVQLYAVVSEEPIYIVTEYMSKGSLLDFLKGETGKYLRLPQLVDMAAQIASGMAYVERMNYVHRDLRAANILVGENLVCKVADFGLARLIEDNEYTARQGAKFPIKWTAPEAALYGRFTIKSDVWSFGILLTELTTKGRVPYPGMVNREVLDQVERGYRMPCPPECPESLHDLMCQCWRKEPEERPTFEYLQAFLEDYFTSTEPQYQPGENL

[36] = target: SRPK1 (human) (UniProt Q96SB4); conditions: compound 100.0 µM; ATP 50 µM
Chain of SRPK1 (human) (Q96SB4 whole entry, looked up): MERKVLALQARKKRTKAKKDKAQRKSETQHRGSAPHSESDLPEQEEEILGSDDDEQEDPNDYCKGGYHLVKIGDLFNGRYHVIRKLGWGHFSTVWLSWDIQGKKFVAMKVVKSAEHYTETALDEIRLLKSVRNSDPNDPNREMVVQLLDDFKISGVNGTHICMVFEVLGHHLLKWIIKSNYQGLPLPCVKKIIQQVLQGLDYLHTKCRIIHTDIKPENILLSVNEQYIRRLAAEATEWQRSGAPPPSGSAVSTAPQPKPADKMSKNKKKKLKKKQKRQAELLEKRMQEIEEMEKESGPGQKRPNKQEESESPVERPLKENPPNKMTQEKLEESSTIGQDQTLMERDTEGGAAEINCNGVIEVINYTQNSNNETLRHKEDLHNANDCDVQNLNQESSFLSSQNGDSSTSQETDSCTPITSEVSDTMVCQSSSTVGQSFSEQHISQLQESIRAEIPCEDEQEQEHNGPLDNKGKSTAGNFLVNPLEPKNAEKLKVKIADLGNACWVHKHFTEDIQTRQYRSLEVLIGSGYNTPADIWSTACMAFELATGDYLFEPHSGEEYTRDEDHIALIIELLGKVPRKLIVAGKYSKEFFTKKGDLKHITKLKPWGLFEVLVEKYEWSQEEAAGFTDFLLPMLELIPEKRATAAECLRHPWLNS

[37] = target: STK33 (human) (UniProt Q9BYT3); conditions: compound 100.0 µM; ATP 50 µM
[38] = target: TAOK1 (human) (UniProt Q7L7X3); conditions: compound 100.0 µM; ATP 20 µM
[39] = target: TEK (human) (UniProt Q02763); conditions: compound 100.0 µM; ATP 20 µM
[40] = target: ZAP70 (human) (UniProt P43403); conditions: compound 100.0 µM; ATP 5 µM

Chain of AURKB (human) (Q96GD4 whole entry, looked up): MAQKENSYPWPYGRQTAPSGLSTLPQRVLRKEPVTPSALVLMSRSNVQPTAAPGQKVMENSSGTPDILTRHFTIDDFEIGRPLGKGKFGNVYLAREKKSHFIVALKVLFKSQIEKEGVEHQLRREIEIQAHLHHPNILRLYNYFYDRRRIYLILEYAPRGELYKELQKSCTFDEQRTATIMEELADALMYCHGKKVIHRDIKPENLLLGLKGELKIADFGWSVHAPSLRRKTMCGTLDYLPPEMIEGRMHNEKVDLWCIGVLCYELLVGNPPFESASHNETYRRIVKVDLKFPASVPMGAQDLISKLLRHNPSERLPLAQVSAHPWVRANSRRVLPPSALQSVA

Compound	inhibition [1] [%]	inhibition [2] [%]	inhibition [3] [%]	inhibition [4] [%]	inhibition [5] [%]	inhibition [6] [%]	inhibition [7] [%]	inhibition [8] [%]	inhibition [9] [%]	inhibition [10] [%]	inhibition [11] [%]	inhibition [12] [%]	inhibition [13] [%]	inhibition [14] [%]	inhibition [15] [%]	inhibition [16] [%]	inhibition [17] [%]	inhibition [18] [%]	inhibition [19] [%]	inhibition [20] [%]	other results
Nc1cnc2c(-c3c(F)cccc3F)cccn2c1=O	81	22	43	67	0	91	11	94	0	20	12	33	25	0	42	88	18	88	31	72	inhibition [21]: 13%; inhibition [22]: 0%; inhibition [23]: 0%; inhibition [24]: 17%; inhibition [25]: 86%; inhibition [26]: 75%; inhibition [27]: 1%; inhibition [28]: 77%; inhibition [29]: 10%; inhibition [30]: 35%; inhibition [31]: 31%; inhibition [32]: 36%; inhibition [33]: 52%; inhibition [34]: 0%; inhibition [35]: 35%; inhibition [36]: 58%; inhibition [37]: 4%; inhibition [38]: 82%; inhibition [39]: 42%; inhibition [40]: 1%
O=C(Nc1cnc2[nH]cnn2c1=O)c1ccccc1	0	2	22	17	0	0	8	0	0	27	1	0	11	1	0	0	0	0	0	20	inhibition [21]: 4%; inhibition [22]: 0%; inhibition [23]: 0%; inhibition [24]: 3%; inhibition [25]: 5%; inhibition [26]: 0%; inhibition [27]: 0%; inhibition [28]: 0%; inhibition [29]: 0%; inhibition [30]: 0%; inhibition [31]: 0%; inhibition [32]: 0%; inhibition [33]: 11%; inhibition [34]: 0%; inhibition [35]: 0%; inhibition [36]: 0%; inhibition [37]: 0%; inhibition [38]: 0%; inhibition [39]: 0%; inhibition [40]: 0%
Nc1nc2cnc(-c3ccccc3)cn2n1	76	27	28	67	54	74	71	55	31	63	76	28	42	48	54	79	57	97	80	37	inhibition [21]: 47%; inhibition [22]: 18%; inhibition [23]: 27%; inhibition [24]: 26%; inhibition [25]: 59%; inhibition [26]: 68%; inhibition [27]: 71%; inhibition [28]: 41%; inhibition [29]: 36%; inhibition [30]: 79%; inhibition [31]: 30%; inhibition [32]: 2%; inhibition [33]: 51%; inhibition [34]: 34%; inhibition [35]: 48%; inhibition [36]: 41%; inhibition [37]: 20%; inhibition [38]: 37%; inhibition [39]: 39%; inhibition [40]: 0%

Second part, led by results:

inhibition [1] [%]	inhibition [2] [%]	inhibition [3] [%]	inhibition [4] [%]	inhibition [5] [%]	inhibition [6] [%]	inhibition [7] [%]	inhibition [8] [%]	inhibition [9] [%]	inhibition [10] [%]	inhibition [11] [%]	inhibition [12] [%]	inhibition [13] [%]	inhibition [14] [%]	inhibition [15] [%]	inhibition [16] [%]	inhibition [17] [%]	inhibition [18] [%]	inhibition [19] [%]	inhibition [20] [%]	Compound	other results
12	0	22	51	28	43	0	5	14	6	17	0	4	0	90	40	18	4	0	0	CC(C)(C)Nc1c(COCc2ccccc2)nc2[nH]cnn12	inhibition [21]: 0%; inhibition [22]: 0%; inhibition [23]: 5%; inhibition [24]: 10%; inhibition [25]: 13%; inhibition [26]: 3%; inhibition [27]: 0%; inhibition [28]: 0%; inhibition [29]: 20%; inhibition [30]: 0%; inhibition [31]: 30%; inhibition [32]: 0%; inhibition [33]: 48%; inhibition [34]: 0%; inhibition [35]: 12%; inhibition [36]: 3%; inhibition [37]: 0%; inhibition [38]: 0%; inhibition [39]: 0%; inhibition [40]: 0%
0	14	27	14	0	0	23	11	16	19	18	31	16	17	5	14	7	11	19	24	O=C(Nc1cnc2[nH]ccn2c1=O)c1ccccc1	inhibition [21]: 10%; inhibition [22]: 0%; inhibition [23]: 2%; inhibition [24]: 11%; inhibition [25]: 12%; inhibition [26]: 25%; inhibition [27]: 0%; inhibition [28]: 7%; inhibition [29]: 6%; inhibition [30]: 3%; inhibition [31]: 0%; inhibition [32]: 2%; inhibition [33]: 10%; inhibition [34]: 1%; inhibition [35]: 8%; inhibition [36]: 14%; inhibition [37]: 21%; inhibition [38]: 0%; inhibition [39]: 0%; inhibition [40]: 9%

— the kinase profiling compilation of Christmann-Franck et al. (2016)
